# Like-named read-outs stand apart in the source and are kept apart here.
# What was measured:
# CYP = CYP isoforms induced; ref Abadie et al. (2009), Richert et al. (2010), Preissner et al. (2010), Hoffmann et al. (2014); cited from earlier work
# [1] = cited from earlier work
# CYP3A4 [2] = conditions: in vivo; cited from earlier work
# CYP1A2 [3] = test: CYP1A2 enzyme induction assay in cryopreserved primary human hepatocytes (PHH); type: in vitro ADME; conditions: for Assigned classification CYP1A2: PHH;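 as to Assigned classification CYP1A2: code 1 means positive inducer and 0 means non-inducer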
# CYP2B6 = CYP2B6 enzyme induction assay in cryopreserved primary human hepatocytes (PHH); type: in vitro ADME; conditions: for Assigned classification CYP2B6: PHH;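 as to Assigned classification CYP2B6: code 1 means positive inducer and 0 means non-inducer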
# CYP3A4 [4] = tested on: CYP3A4
# [5] = Solubility by nephelometry (EURL ECVAM); type: physicochemical; conditions: ECVAM nephelometry, ^2 = solubility limit
# Procedure, shortened: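 Turbidity from insolubility detected by laser nephelometry (Tyndall light scatter). Formazin standards at 1, 5, 10 and 20 NTU used to calculate relative turbidity; 1 NTU equals solvent/medium blank background, with sensitivity to 5 NTU.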
# CYP1A2 [6] = conditions: cited from earlier work
# [7] = Solubility by visual inspection (DMSO stock solution and assay medium); type: physicochemical; conditions: assay medium
# Procedure: The SOPs relied on visual inspection for solubility observation. […] The absence of precipitation in the medium was checked pre- and post-incubation (24 hours) by centrifugation of the sample and observation of any precipitation (pellet residue).
compound,measurement,setting,value
CO[C@H]1/C=C/O[C@@]2(C)Oc3c(C)c(O)c4c(c3C2=O)C2=NC3(CCN(CC(C)C)CC3)NC2=C(NC(=O)/C(C)=C\C=C\[C@H](C)[C@H](O)[C@@H](C)[C@@H](O)[C@@H](C)[C@H](OC(C)=O)[C@@H]1C)C4=O [Rifabutin],CYP induction in vitro (human hepatocytes),CYP,"CYP1A2, CYP3A4"
same,Cmax,"[1]; human in vivo plasma concentration, normal dose",440 nM
same,Cmax,"[1]; human in vivo, normal dose (Table 10)",440 nM
same,CYP induction in vivo literature reference: CYP3A4,CYP3A4 [2],"CYP1A2 NOT induced ([Gillum et al., 1996]) CYP2B6 NO studies CYP3A4 ([Horita and Doi, 2014]; [Barditch-Crovo et al., 1999])"
same,Induction in vivo,CYP3A4 [2],Yes
same,Prediction in vivo inducer,"CYP1A2 [3]; CYP1A2, PHH, Cmax/F2 >0.5 criterion",No
same,F2,"CYP1A2 [3]; CYP1A2, PHH, in vitro concentration producing 2-fold induction",2.2 to 6.7 µM
same,Induction in vitro,"CYP1A2 [3]; CYP1A2, PHH, positive in one donor in each of the three laboratories",Yes
same,Assigned classification CYP1A2,"CYP1A2 [3]; Lab 1, batch 0 6 A",1
same,Assigned classification CYP1A2,"CYP1A2 [3]; Lab 1, batch 4 0 8",1
same,Assigned classification CYP1A2,"CYP1A2 [3]; Lab 1, batch 8 0 8",0
same,Assigned classification CYP1A2,"CYP1A2 [3]; Lab 2, batch 0 6 A",0
same,Assigned classification CYP1A2,"CYP1A2 [3]; Lab 2, batch 4 0 8",0
same,Assigned classification CYP1A2,"CYP1A2 [3]; Lab 2, batch 8 0 8",1
same,Assigned classification CYP1A2,"CYP1A2 [3]; Lab 3, batch 0 6 A",1
same,Assigned classification CYP1A2,"CYP1A2 [3]; Lab 3, batch 4 0 8",0
same,Assigned classification CYP1A2,"CYP1A2 [3]; Lab 3, batch 8 0 8",0
same,F2,"CYP2B6; CYP2B6, PHH",0.29 to 0.87 µM
same,Induction in vitro,"CYP2B6; CYP2B6, PHH",induced CYP2B6 and Yes
same,Prediction in vivo inducer,"CYP2B6; CYP2B6, PHH",Yes
same,Assigned classification CYP2B6,"CYP2B6; Lab 1, batch 0 6 A",1
same,Assigned classification CYP2B6,"CYP2B6; Lab 1, batch 4 0 8",0
same,Assigned classification CYP2B6,"CYP2B6; Lab 1, batch 8 0 8",1
same,Assigned classification CYP2B6,"CYP2B6; Lab 2, batch 0 6 A",0
same,Assigned classification CYP2B6,"CYP2B6; Lab 2, batch 4 0 8",0
same,Assigned classification CYP2B6,"CYP2B6; Lab 2, batch 8 0 8",1
same,Assigned classification CYP2B6,"CYP2B6; Lab 3, batch 0 6 A",1
same,Assigned classification CYP2B6,"CYP2B6; Lab 3, batch 4 0 8",1
same,Assigned classification CYP2B6,"CYP2B6; Lab 3, batch 8 0 8",1
same,Induction in vitro,CYP3A4 [4],Yes
same,Prediction in vivo inducer,CYP3A4 [4],Yes
same,"Summary predictive capacity, CYP3A4 induction (Y/N)",CYP3A4 [4]; hepatocytes,Y
same,Cmax/F2,CYP3A4 [4]; human,4.4
same,F2,CYP3A4 [4]; human,0.1 µM
same,HepaRG medium stability,[5]; HepaRG medium,40 µg/mL
same,PHH medium stability,[5]; PHH medium,40 µg/mL
same,Induction in vivo,"CYP1A2 [6]; CYP1A2, human, ref Table 1",No
same,CYP induction in vivo literature reference: CYP1A2,"CYP1A2 [6]; human in vivo, CYP named without remark = induced, ref references in the cell, Washington University database, Hoffmann et al. (2014), Pelkonen et al. (2008), Hukkanen et al. (2012)","CYP1A2 NOT induced ([Gillum et al., 1996]) CYP2B6 NO studies CYP3A4 ([Horita and Doi, 2014]; [Barditch-Crovo et al., 1999])"
same,HepaRG medium stability,"[7]; Lab 1, visual observation",40 µg/mL
same,HepaRG medium stability,"[7]; Lab 2, visual observation",20 µg/mL
same,HepaRG medium stability,"[7]; Lab 3, visual observation",40 µg/mL
same,PHH medium stability,"[7]; Lab 4, visual observation",40 µg/mL
same,PHH medium stability,"[7]; Lab 5, visual observation",40 µg/mL
same,PHH medium stability,"[7]; Lab 6, visual observation",40 µg/mL

# Source: PMC6718736, “Validation of in vitro methods for human cytochrome P450 enzyme induction: Outcome of a multi-laboratory study” (Toxicology in Vitro, 2019)
